Reference: ChEMBL document CHEMBL1133821, “Synthesis and antiinflammatory, analgesic activity of 3,3'-(1,2-ethanediyl)-bis[2-aryl-4-thiazolidinone] chiral compounds. Part 10” (Bioorg Med Chem Lett, 2001)

Key:
Rattus norvegicus [1] = experiment: Animals with Ulcers in Carrageenan-induced paw edema test at a dose of 100 mg/kg perorally in rats; assay type: functional; conditions: route oral
[2] = Peroral dose causing 50% death of the mice population; assay type: ADME, organism-based; conditions: mouse, in vivo, po
Rattus norvegicus [3] = experiment: Reaction time in Hot plate test at a dose of 100 mg/kg perorally in rats after 120 min; assay type: functional; conditions: route oral
Rattus norvegicus [4] = experiment: Analgesic activity was determined using acetic acid writing test at a dose of 100 mg/kg perorally in rats. (p<0.01); assay type: functional; conditions: route oral
[5] = Minimum concentration which causes 50% of the Artemia salina larvae to lose mobility; assay type: ADME, organism-based; conditions: in vivo
Rattus norvegicus [6] = experiment: Percent Edema variation in Carrageenan-induced paw edema test at a dose of 100 mg/kg perorally in rats after 180 min (p<0.01); assay type: functional; conditions: route oral
Rattus norvegicus [7] = experiment: Animals with Hyperemia in Carrageenan-induced paw edema test at a dose of 100 mg/kg perorally in rats; assay type: functional; conditions: route oral
Rattus norvegicus [8] = experiment: Percent Edema variation in Carrageenan-induced paw edema test at a dose of 100 mg/kg perorally in rats after 60 min; assay type: functional; conditions: route oral
Rattus norvegicus [9] = experiment: Reaction time in Hot plate test at a dose of 100 mg/kg perorally in rats after 180 min; assay type: functional; conditions: route oral
Rattus norvegicus [10] = experiment: Reaction time in Hot plate test at a dose of 100 mg/kg perorally in rats after 60 min (p<0.05); assay type: functional; conditions: route oral
Rattus norvegicus [11] = experiment: Percent Edema variation in Carrageenan-induced paw edema test at a dose of 100 mg/kg perorally in rats after 120 min; assay type: functional; conditions: route oral
Rattus norvegicus [12] = experiment: Number of writhings in Acetic acid Writhing test at a dose of 100 mg/kg perorally in rats(p<0.05); assay type: functional; conditions: route oral
Rattus norvegicus [13] = experiment: (§1) Animals with Hyperemia in Carrageenan-induced paw edema test at a dose of 50 mg/kg perorally in rats; assay type: functional; conditions: route oral
Rattus norvegicus [14] = experiment: Percent Edema variation in Carrageenan-induced paw edema test at a dose of 100 mg/kg perorally in rats after 60 min (p<0.001); assay type: functional; conditions: route oral
Rattus norvegicus [15] = experiment: Percent Edema variation in Carrageenan-induced paw edema test at a dose of 50 mg/kg perorally in rats after 120 min; assay type: functional; conditions: route oral
Rattus norvegicus [16] = experiment: (§2) Animals with Ulcers in Carrageenan-induced paw edema test at a dose of 50 mg/kg perorally in rats; assay type: functional; conditions: route oral
Rattus norvegicus [17] = experiment: Number of writhings in Acetic acid Writhing test at a dose of 100 mg/kg perorally in rats; assay type: functional; conditions: route oral
Rattus norvegicus [18] = experiment: Reaction time in Hot plate test at a dose of 100 mg/kg perorally in rats after 60 min; assay type: functional; conditions: route oral
Rattus norvegicus [19] = experiment: Percent Edema variation in Carrageenan-induced paw edema test at a dose of 100 mg/kg perorally in rats after 180 min; assay type: functional; conditions: route oral
Rattus norvegicus [20] = experiment: Analgesic activity was determined using acetic acid writing test at a dose of 100 mg/kg perorally in rats.; assay type: functional; conditions: route oral
Rattus norvegicus [21] = experiment: Percent Edema variation in Carrageenan-induced paw edema test at a dose of 50 mg/kg perorally in rats after 180 min; assay type: functional; conditions: route oral
Rattus norvegicus [22] = experiment: Percent Edema variation in Carrageenan-induced paw edema test at a dose of 50 mg/kg perorally in rats after 60 min (p<0.01); assay type: functional; conditions: route oral
[23] = as §1; assay type: functional; conditions: route oral
Rattus norvegicus [24] = experiment: Analgesic activity was determined using acetic acid writing test at a dose of 100 mg/kg perorally in rats.(p<0.05); assay type: functional; conditions: route oral
Rattus norvegicus [25] = experiment: Percent Edema variation in Carrageenan-induced paw edema test at a dose of 100 mg/kg perorally in rats after 180 min (p<0.001); assay type: functional; conditions: route oral
[26] = as §2; assay type: functional; conditions: route oral
Rattus norvegicus [27] = experiment: Percent Edema variation in Carrageenan-induced paw edema test at a dose of 100 mg/kg perorally in rats after 120 min (p<0.001); assay type: functional; conditions: route oral
[28] = Percent Edema variation in Carrageenan-induced paw edema test at a dose of 50 mg/kg perorally in rats after 180 min (p<0.001); assay type: functional; conditions: route oral
[29] = (§3) Percent Edema variation in Carrageenan-induced paw edema test at a dose of 50 mg/kg perorally in rats after 60 min; assay type: functional; conditions: route oral
[30] = Percent Edema variation in Carrageenan-induced paw edema test at a dose of 50 mg/kg perorally in rats after 120 min (p<0.01); assay type: functional; conditions: route oral
Rattus norvegicus [31] = experiment: Reaction time in Hot plate test at a dose of 50 mg/kg perorally in rats after 60 min (p<0.01); assay type: functional; conditions: route oral
Rattus norvegicus [32] = experiment: Percent Edema variation in Carrageenan-induced paw edema test at a dose of 50 mg/kg perorally in rats after 180 min (p<0.01); assay type: functional; conditions: route oral
Rattus norvegicus [33] = experiment: Reaction time in Hot plate test at a dose of 50 mg/kg perorally in rats after 120 min (p<0.01); assay type: functional; conditions: route oral
Rattus norvegicus [34] = experiment: Number of writhings in Acetic acid Writhing test at a dose of 50 mg/kg perorally in rats; assay type: functional; conditions: route oral
Rattus norvegicus [35] = experiment: as §3; assay type: functional; conditions: route oral
Rattus norvegicus [36] = experiment: Analgesic activity was determined using acetic acid writing test at a dose of 50 mg/kg perorally in rats. (p<0.01); assay type: functional; conditions: route oral
Rattus norvegicus [37] = experiment: Reaction time in Hot plate test at a dose of 50 mg/kg perorally in rats after 180 min (p<0.01); assay type: functional; conditions: route oral

## Cc1cccc([C@H]2SCC(=O)N2CCN2C(=O)CS[C@H]2c2cccc(C)c2)c1
Rattus norvegicus [1]
  Animals: 20%
[2]
  LD50: > 1000 mg/kg
Rattus norvegicus [3]
  Reaction time: 11.1 s
Rattus norvegicus [4]
  inhibition in vivo at 100 mg/kg: 64%
[5]
  LC50: > 1000 µg/mL
Rattus norvegicus [6]
  Edema variation: -55.81%
Rattus norvegicus [7]
  Animals: 80%
Rattus norvegicus [8]
  Edema variation: 25.6%
Rattus norvegicus [9]
  Reaction time: 11 s
Rattus norvegicus [10]
  Reaction time: 18.4 s
Rattus norvegicus [11]
  Edema variation: -13.05%
Rattus norvegicus [12]
  No. of writhings: 7.3

## COc1cccc([C@H]2SCC(=O)N2CCN2C(=O)CS[C@H]2c2cccc(OC)c2)c1
Rattus norvegicus [13]
  Animals: 20%
Rattus norvegicus [14]
  Edema variation: -65.3%
Rattus norvegicus [15]
  Edema variation: -8.15%
Rattus norvegicus [16]
  Animals: 0%
Rattus norvegicus [17]
  No. of writhings: 8.1
Rattus norvegicus [1]
  Animals: 0%
[2]
  LD50: > 1000 mg/kg
Rattus norvegicus [3]
  Reaction time: 12 s
Rattus norvegicus [18]
  Reaction time: 12.1 s
Rattus norvegicus [19]
  Edema variation: 20.1%
[5]
  LC50: > 1000 µg/mL
Rattus norvegicus [7]
  Animals: 20%
Rattus norvegicus [20]
  inhibition in vivo at 100 mg/kg: 60%
Rattus norvegicus [9]
  Reaction time: 10.7 s
Rattus norvegicus [21]
  Edema variation: 29.59%
Rattus norvegicus [22]
  Edema variation: -38.29%
Rattus norvegicus [11]
  Edema variation: -12.7%

## COc1ccc([C@H]2SCC(=O)N2CCN2C(=O)CS[C@H]2c2ccc(OC)cc2)cc1
[23]
  Animals: 20%
Rattus norvegicus [24]
  inhibition in vivo at 100 mg/kg: 44%
Rattus norvegicus [25]
  Edema variation: -96.42%
[26]
  Animals: 0%
Rattus norvegicus [27]
  Edema variation: -75.9%
Rattus norvegicus [17]
  No. of writhings: 11.3
Rattus norvegicus [1]
  Animals: 0%
[2]
  LD50: > 1000 mg/kg
Rattus norvegicus [3]
  Reaction time: 15.6 s
[5]
  LC50: > 1000 µg/mL
[28]
  Edema variation: -66.97%
[29]
  Edema variation: 14.08%
Rattus norvegicus [7]
  Animals: 40%
Rattus norvegicus [8]
  Edema variation: 20.23%
[30]
  Edema variation: -49%
Rattus norvegicus [9]
  Reaction time: 15 s
Rattus norvegicus [10]
  Reaction time: 17 s

## CCCCC1C(=O)N(c2ccccc2)N(c2ccccc2)C1=O [PHENYLBUTAZONE]
Rattus norvegicus [15]
  Edema variation: -5.25%
Rattus norvegicus [31]
  Reaction time: 28.3 s
Rattus norvegicus [16]
  Animals: 80%
[2]
  LD50: 300 mg/kg
Rattus norvegicus [32]
  Edema variation: -39.02%
Rattus norvegicus [33]
  Reaction time: 30 s
Rattus norvegicus [34]
  No. of writhings: 3.6
Rattus norvegicus [35]
  Edema variation: -20.27%
Rattus norvegicus [7]
  Animals: 100%
Rattus norvegicus [36]
  inhibition in vivo at 50 mg/kg: 82%
Rattus norvegicus [37]
  Reaction time: 31.7 s
